How the values were obtained:
Lapatinib = compound: CS(=O)(=O)CCNCc1ccc(-c2ccc3ncnc(Nc4ccc(OCc5cccc(F)c5)c(Cl)c4)c3c2)o1 [Lapatinib]; details: max 10 µM
Outline: (§1)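 Cancer cell lines in 1536-well plates (7.5 μl DMEM/F12 or RPMI, 10% FBS) were held 24 hours at 37°C and 5% CO2 and then dosed for 72 hours at a final DMSO of typically 0.2%. Viability was taken from CellTiter-Glo 2.0 luminescence, scaled between blank-well and DMSO-well means. Curves were fitted as two-parameter logistic models with a non-linear mixed effects model, from which the single-agent IC50 was taken.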

Dasatinib = compound: CC1=C(C(=CC=C1)Cl)NC(=O)C2=CN=C(S2)NC3=CC(=NC(=N3)C)N4CCN(CC4)CCO [Dasatinib]; details: max 2 µM
Outline: as §1

AZD2811 = compound: CCN(CCO)CCCOc1ccc2c(Nc3cc(CC(=O)Nc4cccc(F)c4)[nH]n3)ncnc2c1 [AZD2811]; details: max 1 µM
Outline: as §1

SG3199 = compound: CC1=CN2[C@@H](C1)C=NC3=CC(=C(C=C3C2=O)OC)OCCCCCOC4=C(C=C5C(=C4)N=C[C@@H]6CC(=CN6C5=O)C)OC [SG3199]; details: max 0.001 µM
Outline: as §1

AZD0156 = compound: CN(C)CCCOc1ccc(-c2ccc3ncc4c(c3c2)n(C2CCOCC2)c(=O)n4C)cn1 [AZD0156]; details: max 3 µM
Outline: as §1

Etoposide = compound: COc1cc([C@@H]2c3cc4c(cc3[C@@H](O[C@@H]3O[C@@H]5CO[C@@H](C)O[C@H]5[C@H](O)[C@H]3O)[C@H]3COC(=O)[C@H]23)OCO4)cc(OC)c1O [Etoposide]; details: max 10 µM
Outline: as §1

SN-38 = compound: CCc1c2c(nc3ccc(O)cc13)-c1cc3c(c(=O)n1C2)COC(=O)[C@]3(O)CC [SN-38]; details: max 0.3 µM
Outline: as §1

MK-2206 = compound: NC1(c2ccc(-c3nc4ccn5c(=O)[nH]nc5c4cc3-c3ccccc3)cc2)CCC1 [MK-2206]; details: max 10 µM
Outline: as §1

Selumetinib = compound: Cn1cnc2c(F)c(Nc3ccc(Br)cc3Cl)c(C(=O)NOCCO)cc21 [Selumetinib]; details: max 10 µM
Outline: as §1

Doxorubicin = compound: COc1cccc2c1C(=O)c1c(O)c3c(c(O)c1C2=O)C[C@@](O)(C(=O)CO)C[C@@H]3O[C@H]1C[C@H](N)[C@H](O)[C@H](C)O1 [Doxorubicin]; details: max 1 µM
Outline: as §1

AZD7648 = compound: Cc1cc2ncnn2cc1Nc1ncc2c(n1)n(C1CCOCC1)c(=O)n2C [AZD7648]; details: max 10 µM
Outline: as §1

AZD5153 = compound: COc1nnc2ccc(N3CCC(c4ccc(OCCN5CCN(C)C(=O)[C@H]5C)cc4)CC3)nn12 [AZD5153]; details: max 1 µM
Outline: as §1

Carboplatin = compound: C1CC(C1)(C(=O)[O-])C(=O)[O-].N.N.[Pt+2] [Carboplatin]; details: max 10 µM
Outline: as §1

5-Fluorouracil = compound: O=c1[nH]cc(F)c(=O)[nH]1 [5-Fluorouracil]; details: max 20 µM
Outline: as §1

Trametinib = compound: CC(=O)Nc1cccc(-n2c(=O)n(C3CC3)c(=O)c3c(Nc4ccc(I)cc4F)n(C)c(=O)c(C)c32)c1 [Trametinib]; details: max 1 µM
Outline: as §1

[1] = compound: O=C(Nc1ccc2[nH]nc(-c3ccncc3)c2c1)[C@@H]1CCN(CC(=O)N2CCN(c3ccc(-c4ncccn4)cc3)CC2)C1; details: max 5 µM
Outline: as §1

Paclitaxel = compound: CC(=O)O[C@H]1C(=O)[C@@]2(C)[C@H]([C@H](OC(=O)c3ccccc3)[C@]3(O)C[C@H](OC(=O)[C@H](O)[C@@H](NC(=O)c4ccccc4)c4ccccc4)C(C)=C1C3(C)C)[C@]1(OC(C)=O)CO[C@@H]1C[C@@H]2O [Paclitaxel]; details: max 3 µM
Outline: as §1

Venetoclax = compound: CC1(C)CCC(CN2CCN(c3ccc(C(=O)NS(=O)(=O)c4ccc(NCC5CCOCC5)c([N+](=O)[O-])c4)c(Oc4cnc5[nH]ccc5c4)c3)CC2)=C(c2ccc(Cl)cc2)C1 [Venetoclax]; details: max 1 µM
Outline: as §1

Savolitinib = compound: C[C@@H](c1ccc2nccn2c1)n1nnc2ncc(-c3cnn(C)c3)nc21 [Savolitinib]; details: max 1 µM
Outline: as §1

AZD5363 = compound: C1CN(CCC1(C(=O)N[C@@H](CCO)C2=CC=C(C=C2)Cl)N)C3=NC=NC4=C3C=CN4 [AZD5363]; details: max 10 µM
Outline: as §1

AZD1390 = compound: CC(C)n1c(=O)n(C)c2cnc3cc(F)c(-c4ccc(OCCCN5CCCCC5)nc4)cc3c21 [AZD1390]; details: max 0.3 µM
Outline: as §1

Gefitinib = compound: COc1cc2ncnc(Nc3ccc(F)c(Cl)c3)c2cc1OCCCN1CCOCC1 [Gefitinib]; details: max 10 µM
Outline: as §1

AZD8186 = compound: C[C@@H](Nc1cc(F)cc(F)c1)c1cc(C(=O)N(C)C)cc2c(=O)cc(N3CCOCC3)oc12 [AZD8186]; details: max 10 µM
Outline: as §1

AZD6738 = compound: C[C@@H]1COCCN1C2=NC(=NC(=C2)C3(CC3)[S@](=N)(=O)C)C4=C5C=CNC5=NC=C4 [AZD6738]; details: max 10 µM
Outline: as §1

Palbociclib = compound: CC(=O)c1c(C)c2cnc(Nc3ccc(N4CCNCC4)cn3)nc2n(C2CCCC2)c1=O [Palbociclib]; details: max 10 µM
Outline: as §1

Alisertib = compound: COc1cc(Nc2ncc3c(n2)-c2ccc(Cl)cc2C(c2c(F)cccc2OC)=NC3)ccc1C(=O)O [Alisertib]; details: max 10 µM
Outline: as §1

Olaparib = compound: O=C(c1cc(Cc2n[nH]c(=O)c3ccccc23)ccc1F)N1CCN(C(=O)C2CC2)CC1 [Olaparib]; details: max 10 µM
Outline: as §1

AZD1775 = compound: C=CCn1c(=O)c2cnc(Nc3ccc(N4CCN(C)CC4)cc3)nc2n1-c1cccc(C(C)(C)O)n1 [AZD1775]; details: max 3 µM
Outline: as §1

SRA737 = compound: N#Cc1cnc(Nc2cc(NC[C@H]3CNCCO3)c(C(F)(F)F)cn2)cn1 [SRA737]; details: max 10 µM
Outline: as §1

Taselisib = compound: Cc1nc(-c2cn3c(n2)-c2ccc(-c4cnn(C(C)(C)C(N)=O)c4)cc2OCC3)n(C(C)C)n1 [Taselisib]; details: max 10 µM
Outline: as §1

AZD4320 = compound: CN(CC[C@H](CSC1=CC=CC=C1)NC2=C(C=C(C=C2)S(=O)(=O)NC(=O)C3=CC=C(C=C3)N4CCC(CC4)[C@H](C5=CC=CC=C5C6=CC=C(C=C6)Cl)O)S(=O)(=O)C(F)(F)F)CCO [AZD4320]; details: max 1 µM
Outline: as §1

Gemcitabine = compound: Nc1ccn([C@@H]2O[C@H](CO)[C@@H](O)C2(F)F)c(=O)n1 [Gemcitabine]; details: max 0.3 µM
Outline: as §1

Crizotinib = compound: C[C@@H](Oc1cc(-c2cnn(C3CCNCC3)c2)cnc1N)c1c(Cl)ccc(F)c1Cl [Crizotinib]; details: max 10 µM
Outline: as §1

AZD5991 = compound: Cc1c2c(nn1C)CSCc1cc(n(C)n1)CSc1cc(c3ccccc3c1)OCCCc1c(C(=O)O)n(C)c3c-2c(Cl)ccc13 [AZD5991]; details: max 1 µM
Outline: as §1

Prexasertib = compound: COc1cccc(OCCCN)c1-c1cc(Nc2cnc(C#N)cn2)n[nH]1 [Prexasertib]; details: max 1 µM
Outline: as §1

| Cell Line | IC50, cell viability 72 h (Lapatinib) | IC50, cell viability 72 h (Dasatinib) | IC50, cell viability 72 h (AZD2811) | IC50, cell viability 72 h (SG3199) | IC50, cell viability 72 h (AZD0156) | IC50, cell viability 72 h (Etoposide) | IC50, cell viability 72 h (SN-38) | IC50, cell viability 72 h (MK-2206) | IC50, cell viability 72 h (Selumetinib) | IC50, cell viability 72 h (Doxorubicin) | IC50, cell viability 72 h (AZD7648) | IC50, cell viability 72 h (AZD5153) | IC50, cell viability 72 h (Carboplatin) | IC50, cell viability 72 h (5-Fluorouracil) | IC50, cell viability 72 h (Trametinib) | IC50, cell viability 72 h [1] | IC50, cell viability 72 h (Paclitaxel) | IC50, cell viability 72 h (Venetoclax) | IC50, cell viability 72 h (Savolitinib) | IC50, cell viability 72 h (AZD5363) | IC50, cell viability 72 h (AZD1390) | IC50, cell viability 72 h (Gefitinib) | IC50, cell viability 72 h (AZD8186) | IC50, cell viability 72 h (AZD6738) | IC50, cell viability 72 h (Palbociclib) | IC50, cell viability 72 h (Alisertib) | IC50, cell viability 72 h (Olaparib) | IC50, cell viability 72 h (AZD1775) | IC50, cell viability 72 h (SRA737) | IC50, cell viability 72 h (Taselisib) | IC50, cell viability 72 h (AZD4320) | IC50, cell viability 72 h (Gemcitabine) | IC50, cell viability 72 h (Crizotinib) | IC50, cell viability 72 h (AZD5991) | IC50, cell viability 72 h (Prexasertib) |
| --- | --- | --- | --- | --- | --- | --- | --- | --- | --- | --- | --- | --- | --- | --- | --- | --- | --- | --- | --- | --- | --- | --- | --- | --- | --- | --- | --- | --- | --- | --- | --- | --- | --- | --- | --- |
| SK-GT-4 (Esophageal Adenocarcinoma) | > 10 µM | 1500 nM | > 1000 nM | > 1 nM | > 3000 nM | > 10 µM | > 300 nM | > 10 µM | 6.05 µM | > 1000 nM | > 10 µM | > 1000 nM | > 10 µM | > 20 µM | 90.1 nM | 4.61 µM | 945 nM | > 1000 nM | > 1000 nM | > 10 µM | > 300 nM | > 10 µM | > 10 µM | > 10 µM | > 10 µM | > 10 µM | > 10 µM | > 3000 nM | > 10 µM | 911 nM | > 1000 nM | > 300 nM | > 10 µM | > 1000 nM | 70.7 nM |
| ST486 (Burkitt's Lymphoma) | > 10 µM | 220 nM | 31.9 nM | > 1 nM | > 3000 nM | 1.18 µM | 80.9 nM | > 10 µM | 8.88 µM | 773 nM | > 10 µM | 64.9 nM | > 10 µM | > 20 µM | > 1000 nM | 4.79 µM | 8.5 nM | > 1000 nM | > 1000 nM | > 10 µM | > 300 nM | > 10 µM | > 10 µM | 2 µM | > 10 µM | 0.04 µM | > 10 µM | 320 nM | 0.968 µM | > 10000 nM | 134 nM | 15.9 nM | 0.739 µM | 71 nM | 7.33 nM |
| T-T (Esophageal Squamous Cell Carcinoma) | > 10 µM | > 2000 nM | > 1000 nM | > 1 nM | > 3000 nM | > 10 µM | 115 nM | > 10 µM | > 10 µM | > 1000 nM | > 10 µM | > 1000 nM | > 10 µM | > 20 µM | > 1000 nM | > 5 µM | 29.3 nM | > 1000 nM | > 1000 nM | > 10 µM | > 300 nM | > 10 µM | > 10 µM | > 10 µM | > 10 µM | > 10 µM | > 10 µM | 1770 nM | > 10 µM | 2980 nM | > 1000 nM | > 300 nM | > 10 µM | 341 nM | 350 nM |
| VMRC-RCZ (Kidney Carcinoma) | > 10 µM | > 2000 nM | > 1000 nM | > 1 nM | > 3000 nM | > 10 µM | > 300 nM | > 10 µM | > 10 µM | > 1000 nM | > 10 µM | > 1000 nM | > 10 µM | > 20 µM | > 1000 nM | > 5 µM | > 3000 nM | > 1000 nM | > 1000 nM | > 10 µM | > 300 nM | > 10 µM | > 10 µM | > 10 µM | > 10 µM | > 10 µM | > 10 µM | > 3000 nM | > 10 µM | > 10000 nM | > 1000 nM | > 300 nM | > 10 µM | > 1000 nM | > 1000 nM |
